Results reported in patent US20240124431A1, “2,3-DIHYDRO-4H-BENZO[B][1,4]OXAZIN-4-YL)(5-(PHENYL)-PYRIDIN-3-YL)METHANONE DERIVATIVES AND SIMILAR COMPOUNDS AS CYP11A1 INHIBITORS FOR THE TREATMENT OF PROSTATE CANCER” (ORION CORPORATION, priority 2020, published 2024).

Biological target: T1, CYP11A1 (Homo sapiens, UniProt P05108)
T1 construct: endogenous in cells; host or cells: NCI-H295R
T1 sequence (P05108 40-521): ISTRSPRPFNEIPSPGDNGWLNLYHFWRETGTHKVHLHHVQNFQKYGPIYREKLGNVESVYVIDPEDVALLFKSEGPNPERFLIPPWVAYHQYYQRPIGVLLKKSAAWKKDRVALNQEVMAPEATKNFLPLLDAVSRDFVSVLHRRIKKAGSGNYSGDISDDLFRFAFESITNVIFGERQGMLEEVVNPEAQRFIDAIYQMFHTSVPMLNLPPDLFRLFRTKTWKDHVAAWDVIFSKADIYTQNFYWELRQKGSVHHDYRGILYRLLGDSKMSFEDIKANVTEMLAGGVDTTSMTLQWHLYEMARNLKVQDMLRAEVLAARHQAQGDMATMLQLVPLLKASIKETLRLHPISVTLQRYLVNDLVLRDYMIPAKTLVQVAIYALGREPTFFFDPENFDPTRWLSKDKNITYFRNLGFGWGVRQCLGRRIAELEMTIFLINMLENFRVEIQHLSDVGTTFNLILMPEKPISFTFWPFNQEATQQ
Assay: CYP11A1 inhibition: pregnenolone biosynthesis measured by ELISA in NCI-H295R cells
Format: cell-based
Conditions: NCI-H295R cells treated for 24 hours, 10 concentrations in duplicates, read-out: IC50 on CYP11A1 inhibition (Group)
Description: The ability of the test compounds to inhibit pregnenolone biosynthesis was measured by enzyme-linked immunosorbent assay (ELISA) detecting pregnenolone (Abnova Pregnenolone ELISA Kit, KA1912). […] To determine the half maximal inhibitory concentration (IC50) of the test compounds on CYP11A1 inhibition, the cells were treated for 24 hours with increasing concentrations of the test compound. The final DMSO concentration was 0.4%. Medium samples were diluted 1:6 and pregnenolone amounts determined with ELISA. Manufacturer's recommended protocols were used and pregnenolone (Sigma-Aldrich, P9129) standards were prepared in cell culture medium. Absorbance (A450) was measured with Envision plate reader (PerkinElmer). All the test compounds were studied at 10 concentrations in duplicates.

Compound | IC50
C=C(c1ccccc1)c1cncc(C(=O)N2CCCc3ccccc32)c1 [Compound 51, (3,4-Dihydroquinolin-1(2H)-yl)(5-(1-phenylvinyl)pyridin-3-yl)methanone] | 0.051 to 0.2 µM
COc1ccc(-c2cncc(C(=O)N3CCCc4ccccc43)c2)cc1 [Compound 18, (3,4-Dihydroquinolin-1(2H)-yl)(5-(4-methoxyphenyl)pyridin-3-yl)methanone] | < 0.05 µM
Cn1cc(-c2cncc(C(=O)N3CCOc4ccccc43)n2)cn1 [Compound 43, (2,3-Dihydro-4H-benzo[b][1,4]oxazin-4-yl)(6-(1-methyl-1H-pyrazol-4-yl)-pyrazin-2-yl)methanone] | 0.051 to 0.2 µM
Cc1cn(-c2cncc(C(=O)N3CCCc4ccccc43)n2)cn1 [Compound 83, (3,4-Dihydroquinolin-1(2H)-yl)(6-(4-methyl-1H-imidazol-1-yl)pyrazin-2-yl)-methanone] | < 0.05 µM
CN1CCN(C(=O)c2cncc(-c3ccc(F)cc3)c2)c2ccccc21 [Compound 31, (5-(4-Fluorophenyl)pyridin-3-yl)(4-methyl-3,4-dihydroquinoxalin-1(2H)-yl)-methanone] | < 0.05 µM
Fc1ccc(-c2cncc(CN3CCc4ccccc43)c2)cc1 [Compound 90, 1-((5-(4-Fluorophenyl)pyridin-3-yl)methyl)indoline] | 0.051 to 0.2 µM
Cc1c(C(=O)N2CCCc3ccccc32)cncc1-c1ccccc1 [Compound 4, (3,4-Dihydroquinolin-1(2H)-yl)(4-methyl-5-phenylpyridin-3-yl)methanone] | 0.051 to 0.2 µM
Cc1cnn(-c2cncc(C(=O)N3CCCc4ccccc43)c2)c1 [Compound 88, (3,4-Dihydroquinolin-1(2H)-yl)(5-(4-methyl-1H-pyrazol-1-yl)pyridin-3-yl)-methanone] | < 0.05 µM
Cc1cnn(-c2cncc(C(=O)N3CCCc4ccccc43)n2)c1 [Compound 84, (3,4-Dihydroquinolin-1(2H)-yl)(6-(4-methyl-1H-pyrazol-1-yl)pyrazin-2-yl)-methanone] | < 0.05 µM

The remaining lines, values ahead:

IC50 | Compound
0.201 to 2.5 µM | COc1ccc(-c2cncc(CC(=O)N3CCOc4ccccc43)c2)cc1 [Compound 80, 1-(2,3-Dihydro-4H-benzo[b][1,4]oxazin-4-yl)-2-(5-(4-methoxyphenyl)pyridin-3-yl)ethan-1-one]
0.051 to 0.2 µM | Cc1cc(C)n(-c2cncc(C(=O)N3CCCc4ccccc43)n2)n1 [Compound 87, (3,4-Dihydroquinolin-1(2H)-yl)(6-(3,5-dimethyl-1H-pyrazol-1-yl)pyrazin-2-yl)-methanone]
0.051 to 0.2 µM | O=C(c1cncc(-c2cccc(C(F)(F)F)c2)c1)N1CCOc2ccccc21 [Compound 48, (2,3-Dihydro-4H-benzo[b][1,4]oxazin-4-yl)(5-(3-(trifluoromethyl)phenyl)pyridin-3-yl)methanone]
< 0.05 µM | O=C1CCN(C(=O)c2cncc(-c3ccccc3)c2)c2ccccc21 [Compound 36, 1-(5-Phenylnicotinoyl)-2,3-dihydroquinolin-4(1H)-one]
< 0.05 µM | O=C(c1cncc(-c2ccc([N+](=O)[O-])cc2)c1)N1CCOc2ccccc21 [Compound 32, (2,3-Dihydro-4H-benzo[b][1,4]oxazin-4-yl)(5-(4-nitrophenyl)pyridin-3-yl)-methanone]
0.201 to 2.5 µM | O=C(c1cncc(-c2ccc(F)cc2)c1)N1CCc2ccccc21 [Compound 60, (5-(4-Fluorophenyl)pyridin-3-yl)(indolin-1-yl)methanone]
< 0.05 µM | O=C(c1cncc(-c2ccc(F)cc2)c1)N1CCOc2cc(F)ccc21 [Compound 2, (7-Fluoro-2,3-dihydro-4H-benzo[b][1,4]oxazin-4-yl)(5-(4-fluorophenyl)pyridin-3-yl)methanone]
0.201 to 2.5 µM | O=C(c1cncc(-c2ccc(F)c([N+](=O)[O-])c2)c1)N1CCOc2ccccc21 [Compound 58, (2,3-Dihydro-4H-benzo[b][1,4]oxazin-4-yl)(5-(4-fluoro-3-nitrophenyl)pyridin-3-yl)methanone]
